From patent US20110071141A1, “Pesticidial Condensed-Ring Aryl Compounds” (Bayer CropScience AG, priority 2008, published 2011) come the findings set out here.

The structures appear in SMILES notation. Where two headings read alike, the source gives them in different places.

Holding throughout (assay type): in vivo
The test system of experiment [1] is Boophilus microplus. In words: whole plant or invertebrate. Conditions: Rhipicephalus microplus, 168 h, read-out: activity (mortality in %; 100% means all eggs infertile). On the procedure:
(§1) Solvent: dimethyl sulfoxide
Five adult engorged female ticks (Boophilus microplus) are injected with compound solution into the abdomen. Ticks are transferred into replica plates and incubated in a climate chamber for a period of time. Egg deposition of fertile eggs is monitored. After 7 days, mortality in % is determined. 100% means that all eggs are infertile; 0% means that all eggs are fertile.

In another experiment the test system is Ctenocephalides felis. In words: whole plant or invertebrate. As to conditions: 48 h, read-out: activity (mortality in %). The protocol:
as §1
Approximately 10 to 15 adult unfed (Ctenocepahlides felis) are placed in flea chambers. […] The blood chamber is heated to 37° C. whereas the flea chamber is kept at room temperature. After 2 days, mortality in % is determined. 100% means that all the fleas have been killed; 0% means that none of the fleas have been killed.

The subject of a further experiment is Musca domestica. Nature of the experiment: whole plant or invertebrate. As to conditions: 48 h, read-out: activity (mortality in %). The protocol:
as §1
Prior to the assay, a piece or kitchen sponge is soaked with a mixture of sugar and compound solution and placed into a container. 10 adults (Musca domestica) are placed into the container and closed with a perforated lid. After 2 days, mortality in % is determined. 100% means that all the flies have been killed; 0% means that none of the flies have been killed.

For another experiment, the system named is Aulacophora femoralis. Nature of the experiment: whole plant or invertebrate. As to conditions: in Cucumis sativus, 168 h, read-out: mortality (control efficacy). The source says:
The test solution has been prepared as described in biological test example 1.
Cucumber leaves were immersed in a test solution that had been diluted to a predetermined concentration with water. The leaves were air-dried and then put in a plastic cup containing sterilized black soil. 5 Aulacophora femoralis second instar larvae were released in the cup.

Experiment [2] has as its system Boophilus microplus. In words: Boophilus microplus test (dip). Conditions: Rhipicephalus microplus, 168 h, read-out: activity (mortality in %). On the procedure: as §1
Eight to ten adult engorged female Boophilus microplus ticks are placed in perforated plastic beakers and immersed in aqueous compound solution for one minute. Ticks are transferred to a filter paper in a plastic tray. Egg deposition of fertile eggs is monitored after. After 7 days, mortality in % is determined. 100% means that all the ticks have been killed; 0% means that none of the ticks have been killed.

A further experiment relates to Lucilia cuprina larvae. In words: whole plant or invertebrate. As to conditions: 48 h, read-out: activity (mortality in %). On the procedure:
as §1
Approximately 20-30 (Lucilia cuprina larvae) are transferred into a test tube containing 1 cm^3 of minced horse meat and 0.5 ml aqueous dilution of test compound. After 2 days, mortality in % is determined.

In a further experiment the test system is Phaedon cochleariae. In words: Phaedon cochleariae test (spray application). As to conditions: in Brassica rapa, foliar, 168 h, read-out: activity (mortality in %). On the procedure:
Solvent: 78.0 parts by weight of acetone • • 1.5 parts by weight of dimethylformamide Emulsifier: 0.5 parts by weight of alkylaryl polyglycolether
To produce a suitable preparation of active compound, 1 part by weight of active compound is mixed with the stated amount of solvent and emulsifier, and the concentrate is diluted with emulsifier-containing water to the desired concentration. Chinese cabbage (Brassica pekinesis) leaf-disks are sprayed with a preparation of the active ingredient of the desired concentration. Once dry, the leaf disks are infested with mustard beetle larvae (Phaedon cochleariae).
After 7 days, mortality in % is determined. 100% means that all beetle larvae have been killed and 0% means that none of the beetle larvae have been killed.

The subject of another experiment is Spodoptera frugiperda. In words: Spodoptera frugiperda test (spray application). Conditions: 168 h, application rate 500 g/ha, sprayed maize leaf sections, larvae, 7 days. The source says: Solvent: 78.0 parts by weight acetone • 1.5 parts by weight dimethylformamide Wetting agent 0.5 parts by weight alkylarylpolyglcolether
To produce a suitable preparation of the active compound, 1 part by weight of active compound is mixed with the stated amount of solvent and emulsifier, and the concentrate is dilutes with emulsifier-containing water to the desired concentration.
Maize (Zea mais) leaf sections are sprayed with a preparation of the active ingredient of the desired concentration. Once dry, the leaf sections are infested with fall armyworm larvae (Spodoptera frugiperda). After 7 days, mortality in % is determined. 100% means that all caterpillars have been killed and 0% means that none of the caterpillars have been killed.

The next experiment relates to Tetranychus urticae. Nature of the experiment: Test on Tetranychus urticae (spray test). As to conditions: active compound concentration 100 ppm; adult mites on pinto bean sprayed; 7 days. On the procedure: The test solution has been prepared as described in biological test example 1. 50 to 100 adult Tetranychus urticae were placed on pinto bean leaves at true leaf stage having two main leaves that had been grown in a pot (6 cm diameter). After 1 day, a generous amount of the test solution which has been diluted with water to the predetermined concentration was sprayed thereto using a spray gun.
After keeping the pot in a green house for 7 days, acaricidal ratio was calculated. 100% means that all the mites have been killed; 0% means that none of the mites have been killed.

What is called mortality is the share of the test organisms that died. On to `O=C1OCc2cc(C3=NOC(c4cc(Cl)cc(Cl)c4)(C(F)(F)F)C3)ccc21` (centres unmarked) [Example 1-2, 5-[5-(3,5-dichlorophenyl)-5-(trifluoromethyl)-4,5-dihydroisoxazol-3-yl]-2-benzofuran-1(3H)-one], for which the mortality at 0.02 mg with Boophilus microplus [1] is not below 80%. The mortality at 100 ppm in the experiment on Ctenocephalides felis (in Bos taurus) is not below 80%; in the experiment on Musca domestica, not below 80%; in the experiment with Aulacophora femoralis, 100%; in the experiment with Boophilus microplus [2], not below 80%; with Lucilia cuprina larvae (in Equus caballus), not below 80%. The mortality at 500 g/ha is 80% in the experiment on Phaedon cochleariae and not below 80% in the experiment on Spodoptera frugiperda.

For the compound `O=C1c2ccc(C3=NOC(c4cc(Cl)cc(Cl)c4)(C(F)(F)F)C3)cc2CN1Cc1ccccn1` (centres unmarked) [Example 1-58], the “mortality (acaricidal ratio)” value in the experiment on Tetranychus urticae is given as “at least 98%”.

Regarding `FC(F)(F)C1(c2cc(Cl)cc(Cl)c2)CC(c2ccc3c(c2)COC3)=NO1` (centres unmarked) [Example 1-131, 5-(3,5-dichlorophenyl)-3-(1,3-dihydro-2-benzofuran-5-yl)-5-(trifluoromethyl)-4,5-dihydroisoxazole], in the experiment with Boophilus microplus [1], the mortality at 0.02 mg is not below 80%. Also, the mortality at 100 ppm in the experiment on Ctenocephalides felis (in Bos taurus) is not below 80%; with Musca domestica, not below 80%; in the experiment with Aulacophora femoralis, 100%; with Lucilia cuprina larvae (in Equus caballus), not below 80%.

Consider `CC(=O)N1Cc2ccc(C3=NOC(c4cc(Cl)cc(Cl)c4)(C(F)(F)F)C3)cc2C1` (centres unmarked) [Example 1-151, 1-{5-[5-(3,5-dichlorophenyl)-5-(trifluoromethyl)-4,5-dihydroisoxazol-3-yl]-1,3-dihydro-2H-isoindol-2-yl}ethanone], for which the mortality at 0.02 mg in the experiment with Boophilus microplus [1] was not below 80%. Also, the mortality at 100 ppm in the experiment with Aulacophora femoralis is 100%; in the experiment with Lucilia cuprina larvae (in Equus caballus), not below 80%.

Turning to `CC(=O)N1Cc2cc(C3=NOC(c4cc(Cl)cc(Cl)c4)(C(F)(F)F)C3)ccc2C1=O` (centres unmarked) [Example 1-221, 2-acetyl-5-[5-(3,5-dichlorophenyl)-5-(trifluoromethyl)-4,5-dihydroisoxazol-3-yl]-2,3-dihydro-1H-isoindol-1-one], the mortality at 100 ppm with Aulacophora femoralis was found to be 100%.

For the compound `N=C1OCc2cc(C3=NOC(c4cc(Cl)cc(Cl)c4)(C(F)(F)F)C3)ccc21` (centres unmarked) [Example 1-232, 5-[5-(3,5-dichlorophenyl)-5-(trifluoromethyl)-4,5-dihydroisoxazol-3-yl]-2-benzofuran-1(3H)-imine], the mortality at 0.02 mg with Boophilus microplus [1] was not below 80%. Further, the mortality at 100 ppm in the experiment with Ctenocephalides felis (in Bos taurus) was not below 80%; in the experiment with Musca domestica, not below 80%; in the experiment on Aulacophora femoralis, 100%; with Lucilia cuprina larvae (in Equus caballus) it was not below 80%.

With `CC(=O)/N=C1\c2ccc(C3=NOC(c4cc(Cl)cc(Cl)c4)(C(F)(F)F)C3)cc2CN1Cc1ccccn1` (centres unmarked) [Example 1-235, N-[(1E)-5-[5-(3,5-dichlorophenyl)-5-(trifluoromethyl)-4,5-dihydroisoxazol-3-yl]-2-(pyridin-2-ylmethyl)-2,3-dihydro-1H-isoindol-1-ylinden]acetamide], in the experiment on Boophilus microplus [1], the mortality at 0.02 mg is not below 80%. The mortality at 100 ppm in the experiment with Ctenocephalides felis (in Bos taurus), in the experiment on Musca domestica and with Lucilia cuprina larvae (in Equus caballus) was not below 80% throughout.

With `N#Cc1ccc2cc(C3=NOC(c4cc(Cl)cc(Cl)c4)(C(F)(F)F)C3)ccc2n1` (centres unmarked) [Example 1-255, 6-[5-(3,5-dichlorophenyl)-5-(trifluoromethyl)-4,5-dihydroisoxazol-3-yl]quinolin-2-carbonitrile], the mortality at 0.02 mg in the experiment with Boophilus microplus [1] is not below 80%. The mortality at 100 ppm in the experiment with Ctenocephalides felis (in Bos taurus), in the experiment with Musca domestica and in the experiment with Lucilia cuprina larvae (in Equus caballus) was not below 80% in each case.

For `CC(=O)NC1CCc2cc(C3=NOC(c4cc(Cl)cc(Cl)c4)(C(F)(F)F)C3)ccc21` (centres unmarked) [Example 3-3, N-{5-[5-(3,5-dichlorophenyl)-5-(trifluoromethyl)-4,5-dihydroisoxazol-3-yl]-2,3-dihydro-1H-inden-1-yl}acetamide], in the experiment with Boophilus microplus [1], the mortality at 0.02 mg was not below 80%. Besides, the mortality at 100 ppm with Ctenocephalides felis (in Bos taurus) was not below 80%; in the experiment on Musca domestica, not below 80%; in the experiment on Aulacophora femoralis it was 100%; in the experiment with Boophilus microplus [2], not below 80%; with Lucilia cuprina larvae (in Equus caballus), not below 80%.

Consider `CCNC(=O)NC1CCc2cc(C3=NCC(c4cc(Cl)cc(Cl)c4)(C(F)(F)F)C3)ccc21` (centres unmarked) [Example 3-112, 1-{5-[3-(3,5-dichlorophenyl)-3-(trifluoromethyl)-3,4-dihydro-2H-pyrrol-5-yl]-2,3-dihydro-1H-inden-1-yl}-3-ethylurea], for which, in the experiment with Boophilus microplus [1] (application rate 20 μg/animal injected, adult engorged female ticks, 7 days), the mortality at 0.02 mg was not below 80%. Besides, the mortality at 100 ppm in the experiment on Ctenocephalides felis (application rate 100 ppm in cattle blood, adult unfed fleas, 2 days) was not below 80%; with Musca domestica (application rate 100 ppm, adults, 2 days) it was not below 80%; in the experiment on Aulacophora femoralis it was 100%; with Boophilus microplus [2] (application rate 100 ppm, adult engorged female ticks immersed one minute, 7 days) it was not below 80%; in the experiment with Lucilia cuprina larvae (application rate 100 ppm, larvae in minced horse meat, 2 days) it was not below 80%.

For `NC1CCCc2cc(C3=NOC(c4cc(Cl)cc(Cl)c4)(C(F)(F)F)C3)ccc21` (centres unmarked) [Example 3-211, 6-[5-(3,5-dichlorophenyl)-5-(trifluoromethyl)-4,5-dihydroisoxazol-3-yl]-1,2,3,4-tetrahydronaphthalen-1-amine], the mortality at 0.02 mg with Boophilus microplus [1] is not below 80%. Further, the mortality at 100 ppm in the experiment on Aulacophora femoralis was 100%.

On to `CCNC(=O)N1CCc2cc(C3=NOC(c4cc(Cl)cc(Cl)c4)(C(F)(F)F)C3)ccc21` (centres unmarked) [Example 3-638, 5-[5-(3,5-dichlorophenyl)-5-(trifluoromethyl)-4,5-dihydroisoxazol-3-yl]-N-ethyl-2,3-dihydro-1H-indol-1-carboxamide], for which the mortality at 0.02 mg in the experiment on Boophilus microplus [1] is not below 80%. Besides, the mortality at 100 ppm in the experiment on Ctenocephalides felis (in Bos taurus) was not below 80%; in the experiment with Musca domestica, not below 80%; with Aulacophora femoralis it was 100%; in the experiment with Lucilia cuprina larvae (in Equus caballus), not below 80%.
